# Assay results taken from a melting point compilation (Tetko et al.; mined from patent text by program, amines drawn as free bases though some values may be those of a salt).
row,melting point [°C],SMILES
1,74 to 76,Cc1ccc(CC(C)(C)C(=O)C=CN(C)C)cc1
2,185 to 187,FC(F)(F)c1ccc(-c2cc(Oc3ccc4cccnc4c3)ncn2)c(Br)c1
3,105 to 108,Cn1nc(C(F)(F)F)c(CS(=O)(=O)C2=NOC(C)(C)C2)c1C#N
4,208 to 209,O=c1c(Cc2ccccc2)cn(-c2ccc(F)cc2)c2ncccc12
5,221 to 223,COC(=O)c1ccc(C(=O)NS(=O)(=O)c2ccc(OC(F)(F)F)cc2)cn1
6,168 to 170,O=C1CCC(N2Cc3c(OCc4cc(CN5CCOCC5)co4)cccc3C2=O)C(=O)N1 (centres undefined)
7,127,Cc1csc2nc3ccc(C(F)(F)F)cc3n12
8,133 to 134,CCCc1c(OCCCOc2ccc(Cl)cc2)ccc2c1OC(CCC(=O)O)(CCC(=O)O)CC2=O
9,57 to 58,CCOC(=O)C=C(C)Nc1ccc(OC)c(OC)c1
10,202 to 204,CC(C)(C)C(=O)Oc1nc2c(N)ncnc2n1Cc1ccccc1
11,196 to 198,O=C1c2ccccc2C(c2ccc(Cl)cc2)(c2c(O)cc(O)cc2O)N1Cc1ccc([N+](=O)[O-])cc1 (centres undefined)
12,90 to 92,CCOC(=O)C=Cc1cc(OCc2ccccc2)ccc1-c1ccc(-c2cccc(C)c2)c(C=O)c1
13,144 to 145,C/C=C(/C)c1ccc2c(c1)C(=O)N(c1ccc3c(ccn3C)c1)C2
14,45,CCOc1nn(-c2ccccc2Cl)c(=O)o1
15,57,CC(C)NNc1ncnc2c1cnn2C
16,209 to 211,Cc1nc(-c2ccc3c(=O)n(CC(C)C)c(CNC(=O)OC(C)(C)C)c(-c4ccccc4)c3c2)sc1C#N
17,238 to 241,O=c1[nH]c2c(-c3ccccc3F)nnn2c2ccccc12
18,184,Cc1oc(-c2cccc(-c3ccc(C(=O)O)cc3)c2)nc1CCOc1cccc(OC(C)(C)C(=O)O)c1
19,183 to 185,CCCc1nc(C(C)(C)O)c(C(=O)O)n1Cc1ccc(-c2ccccc2C(=O)C(=O)O)cc1
20,80 to 85,CC(C)(C)OC(=O)NCC1CCn2c(cc3ccccc32)C1 (centres undefined)
21,129 to 130,CCOC(=O)C(O)=Cc1cc(CCc2ccc(F)cc2)ccn1
22,147 to 148,COc1cc(C(C)=O)ccc1OCCCN1CCC(C(O)(c2ccccc2)c2ccc(F)cc2)CC1 (centres undefined)

row,melting point [°C],SMILES
1,172 to 175,CS(=O)(=O)c1ccc(-c2cccn2-c2ccc3c(c2)OCO3)cc1
2,120,COC(=O)CCCc1cc2cc(Cl)ccc2n1S(=O)(=O)c1ccc2nc(NC(C)=O)sc2c1
3,89 to 91,NC(CCO)C(=O)Nc1ccc(Cl)cc1Cl (centres undefined)
4,94 to 96,CCCCCCCCc1ncc(-c2ccc(O)cc2)cn1
5,208 to 209,O=C(O)COc1cc(Cl)ccc1C(=O)NCc1ccc2c(c1)OCO2
6,123 to 125,CC(=O)Oc1ccc(C(=O)O)cc1C(C)(C)C
7,141 to 148,O=C(Cc1ccc(F)cc1)Nc1ccc(-n2nc(C3CC3)cc2C2CC2)cc1
8,202 to 204,CN(CCCOc1ccc(C=C2SC(=O)NC2=O)cc1)c1nc2ccccc2o1
9,153 to 154,COC1CCN(S(=O)(=O)c2ccc(S(N)(=O)=O)cc2)CC1
10,58 to 60,CCOC(=O)/C=C(\C)Cl
11,155 to 157,COc1ccc(COc2cncc3c2C(=O)c2c(F)ccc(Cl)c2C3=O)cc1
12,89 to 91,COC(=O)c1cccc(-c2ccc(OC)c3c2CC(C)(C)O3)c1
13,90.5 to 92.5,COC(=O)CCC(=O)c1ccc(-c2ccc(Cl)cc2F)cc1
14,112 to 114,O=C1NC(=O)C(c2ccc(Cl)o2)O1 (centres undefined)
15,> 300,O=c1oc2cc(O)ccc2c(O)c1C1=CCOc2oc3ccccc3c(=O)c21
16,243 to 245,COC(=O)c1cc(NC(C)=O)c2cc(Cc3ccc(F)cc3)cnc2c1O
17,50,CCOC(=O)C1CSC(COc2ccccc2OC)N1 (centres undefined)
18,155 to 156,CC1Oc2cc3nc(SCc4ccccn4)[nH]c3cc2O1
19,115 to 118,CN1Cc2cccnc2C(N2CC[N+]([O-])(C(=O)Cc3ccncc3)CC2)c2ccc(Cl)cc21 (centres undefined)
20,220 to 221,O=C(c1ccc(O)cc1)c1oc2ccccc2c1-c1ccc(Cl)cc1
21,110 to 111,O=C(CCCc1ccccc1)N[C@H](Cc1cccc(C(F)(F)F)c1)[C@@H](O)c1ccc(F)cc1 (racemic)
22,59 to 60,CCc1ccc(SCCC(=O)O)cc1

row,melting point [°C],SMILES
1,113 to 114,CC(C)(C)c1cc(-c2ccc(N)cc2)cc(C(C)(C)C)c1O
2,114,CCc1cc(-c2cccc(NC(C)=O)n2)c(OC)cc1OCCN(C)C
3,> 220,Nc1ccc(Oc2ccc(Oc3ccc(N)c(O)c3)cc2)cc1O
4,200 to 203,COc1ccc(NC(=O)c2ccc(F)c(F)c2)cc1NC(=S)Nc1ccc(C(=O)O)cc1
5,144,CS(=O)(=O)c1ccc(-c2cc(Cl)c(Cl)cc2-c2ccc(F)cc2)cc1
6,264 to 268,CC(C)NC(=O)c1ccc(-c2cnc3[nH]c(=O)n(CC4CCCCC4)c3n2)cc1
7,187 to 188,Cc1ccc(-c2c(-c3ccc(S(N)(=O)=O)cc3)cnn(-c3ccc(F)cc3)c2=O)cc1F
8,287,Cc1cc(-c2cc(C(F)(F)F)nc(-n3cnc(-c4ccc(S(N)(=O)=O)cc4)c3)n2)ccc1C(F)(F)F
9,223 to 225,Nc1nc(-c2cc(Cl)ccc2Cl)nc(N2CCC(=O)CC2)n1
10,247 to 249,Cc1ccc(N2C(=O)C(O)=C(C(=O)c3ccc(-c4ccccn4)cc3)C2c2ccc(OC(F)(F)F)cc2)nn1 (centres undefined)
11,112,CCCC(=O)c1cnc2c(OCC)nccc2c1Nc1ccccc1C
12,93 to 95,CC(C)(NCCCn1ccnc1)c1ccc(-c2ccc(OCc3ccccc3)cc2)cc1
13,172,CC(C)(C)Cc1c(CC(C)(C)C(=O)O)n(Cc2ccc(Cl)cc2)c2ccc(OCc3ccc4ccccc4n3)cc12
14,127 to 129,C=C(C#N)CN1CCC(C(N)=O)CC1
15,145 to 146,O=C(O)C1CCCc2c(OCc3ccccc3)cccc21 (centres undefined)
16,179 to 181,N#Cc1c(Br)c(-c2ccc(Cl)cc2)n(C(=O)c2ccccc2)c1Cl
17,97 to 100,O=S1Cc2ccccc2-c2ccccc21 (centres undefined)
18,250,O=C(O)c1ccc(-c2cnc3c(c2)N(Cc2ccccc2OC(F)(F)F)CCN3)cc1
19,210 to 212,CCCCc1nc2c(N)nc3ccccc3c2n1CCCNS(=O)(=O)c1ccccc1
20,88 to 90,CCCCC1CCCC2=C1C(=O)c1cc(C)c(C)cc1C2=O (centres undefined)
21,133 to 136,CS(=O)c1nccc(-c2cn(Cc3ccccc3C#N)c(=O)n2-c2ccc(F)cc2)n1 (centres undefined)

row,SMILES,melting point [°C]
1,NC(=NO)c1ncn2c1[C@@H]1CCN1C(=O)c1cc(F)ccc1-2,248 to 250
2,CC1N=C(c2ccccc2F)c2cc(Br)ccc2NC1=O (centres undefined),183 to 185
3,CN(C)C=C1N=C(c2ccccc2Cl)c2cc(I)ccc2N(C)C1=O,182 to 184
4,CN1CCC2(C)c3cc(O)cc(Br)c3N(C)C12 (centres undefined),175 to 177
